Test results taken from patent US20230118497A1, “PYRAZOLE-CONTAINING POLYCYCLIC DERIVATIVE INHIBITOR, PREPARATION METHOD THEREFOR AND APPLICATION THEREOF” (Shanghai Hansoh Biomedical Co., Ltd., priority 2019, published 2023).

Key:
[1] = target: T1, 1321N1-hP2X3 receptor (Homo sapiens, UniProt P56373); test: Calcium ion mobility (FLIPR) in cells stably expressing 1321N1-hP2X3 receptors; format: cell-based; conditions: calcium signal, agonist at EC80
T1 construct: host or cells: 1321N1
T1 sequence (P56373 1-397): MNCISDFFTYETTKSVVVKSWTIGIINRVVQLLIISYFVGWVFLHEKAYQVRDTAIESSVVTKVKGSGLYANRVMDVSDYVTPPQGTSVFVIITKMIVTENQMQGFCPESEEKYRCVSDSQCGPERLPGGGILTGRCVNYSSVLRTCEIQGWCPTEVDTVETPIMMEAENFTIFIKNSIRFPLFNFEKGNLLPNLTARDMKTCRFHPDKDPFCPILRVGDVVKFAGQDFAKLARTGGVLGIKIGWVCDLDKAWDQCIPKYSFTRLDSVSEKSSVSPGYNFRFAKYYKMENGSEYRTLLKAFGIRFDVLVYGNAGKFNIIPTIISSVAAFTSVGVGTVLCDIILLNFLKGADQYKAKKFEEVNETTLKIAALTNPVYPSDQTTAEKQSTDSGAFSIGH
Procedure: Test Example 1. Determination of the Effect of the Compounds of the Present Invention on Calcium Ion Mobility in Cells Stably Expressing 1321N1-hP2X3 Receptors
To determine the inhibitory activity of the compounds on 1321N1-hP2X3 receptor.
Stably transfected cell line: 1321N1-hP2X3 (supplied by Shanghai ChemPartner Chemical Research Co., Ltd.).
(§1) Assay buffer: 1*HBSS+20 mM HEPES;
Cell culture medium: DMEM+10% FBS+75 µg/mL Hygromycin B+300 µg/mL G418;
(§2) Plating medium: DMEM+10% DPBS;
(§3) 0.5*Dye: 10*Dye stock+1.25 Probenecid+1*assay buffer+0.5 U/mL ATP hydrolytic enzyme;
(§4) 2. The cells were cultured to 70%-90% confluency in the cell culture medium at 37° C., 5% CO2. The medium was discarded, and the cells were added with 2 mL of Versene, and the cells were placed in an incubator at 37° C. for 2 to 5 min. The cells were collected by addition of 10 mL of plating medium and counted. The cells were seeded to the 384-well assay plate by addition of 50 μL solution (a density of 1×10^4 cells/well) to each well, and incubated for 16 to 24 hours (at least overnight).
(§5) 3. The medium was discarded, and 30 μL of 1× dye was added. The cells were incubated at 37° C. in the dark for 60 min.
(§6) 4. The compound powder was dissolved in DMSO to obtain a 20 mM stock solution. 180× compound with required concentration was formulated, and diluted in gradient for concentration points.
(§7) 5. Preparation of compound plate: 500 nL of 180× compound was transferred to the compound plate (source plate for FLIPR) using ECHO. 30 μL of assay buffer was added to each well, and the plate was shaken gently for 20 to 40 minutes.
(§8) 6. Determination: 15 μL of 3× compound was taken from each well and added to the cell plate. The samples were added by FLIPR instrument, and the calcium signals were detected. After 15 minutes, 22.5 μL of 3× agonist (EC80 concentration) was added to each well and the calcium signals were detected.
(§9) The calcium signal values were determined by FLIPR. The ratio of the 340/510 nm wavelength signals to 380/510 nm wavelength signals was used as the calculated results for each sampling time point in the experiment. The calculation of maximum minus minimum was derived from the ratio signal curve.
(§10) The percent inhibition rate and ten-point concentration data were fitted to the parametric nonlinear logistic equation by using GraphPad prism to calculate the IC50 values of the compounds.

[2] = target: T2, 1321N1-hP2X2/3 receptor (Homo sapiens, UniProt P56373+Q9UBL9); test: Calcium ion mobility (FLIPR) in cells stably expressing 1321N1-hP2X2/3 receptors; format: cell-based; conditions: calcium signal, agonist at EC80
T2 construct: host or cells: 1321N1
T2 sequence (P56373 1-397): T1 sequence (P56373 1-397)
T2 sequence (Q9UBL9 1-471): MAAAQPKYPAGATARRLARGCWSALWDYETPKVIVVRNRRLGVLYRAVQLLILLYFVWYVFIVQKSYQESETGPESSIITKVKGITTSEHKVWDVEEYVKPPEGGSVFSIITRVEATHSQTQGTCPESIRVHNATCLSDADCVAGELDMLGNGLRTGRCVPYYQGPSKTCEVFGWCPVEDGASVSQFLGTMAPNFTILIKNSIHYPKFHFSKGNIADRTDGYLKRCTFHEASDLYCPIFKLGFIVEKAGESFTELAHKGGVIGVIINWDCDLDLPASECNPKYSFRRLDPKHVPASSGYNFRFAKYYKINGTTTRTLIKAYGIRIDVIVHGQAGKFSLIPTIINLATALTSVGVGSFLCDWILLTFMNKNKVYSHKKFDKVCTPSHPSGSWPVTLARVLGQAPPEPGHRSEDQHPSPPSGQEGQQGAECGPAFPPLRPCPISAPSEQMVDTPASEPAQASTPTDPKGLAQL
Procedure: Test Example 2. Determination of the Effect of the Compounds of the Present Invention on Calcium Ion Mobility in Cells Stably Expressing 1321N1-hP2X2/3 Receptors
To determine the inhibitory activity of the compounds on 1321N1-hP2X2/3 receptor.
Stably transfected cell line: 1321N1-hP2X2/3 (supplied by Shanghai ChemPartner Chemical Research Co., Ltd.).
as §1
Cell culture medium: DMEM+10% FBS+75 μg/mL Hygromycin B+150 μg/mL G418;
as §2, §3, §4, §5, §6, §7, §8, §9, §10

[3] = Pharmacokinetic assay in Balb/C mice; format: in vivo; conditions: male, mouse, po, p.o. 5 mg/kg, plasma, 0.5% CMC-Na (1% Tween 80)
Procedure: Test Example 3. Pharmacokinetic Assay in Balb/C Mice
Balb/C mice were used as test animals. The pharmacokinetic behavior of the compounds of Examples was studied in mouse body (plasma) by orally administration at a dose of 5 mg/kg.
Male Balb/C mice (6 mice per group), purchased from Shanghai Jiesijie Laboratory Animal Co., LTD, with Certificate No.: SCXK (Shanghai) 2013-0006 N0.311620400001794.
5 g of hydroxyethyl cellulose (HEC, CMC-Na, viscosity: 800-1200 Cps) was weighed and dissolved in 1000 mL of purified water, followed by addition of 10 g of Tween80.
After an overnight fast, male Balb/C mice were administered p.o. with the test compound at a dose of 5 mg/kg and a volume of 10 mL/kg.
0.04 mL of blood was taken from the orbit of the mouse before administration and at 0, 0.5, 1, 2, 4, 6, 8 and 24 hours after administration. The samples were stored in EDTA-K2 tubes, and centrifuged for 6 minutes at 4° C., 6000 rpm to separate the plasma. The plasma samples were stored at −80° C.
1) 160 μL of acetonitrile was added to 20 μL of the plasma sample for precipitation, and then the mixture was centrifuged at 3500×g for 5 to 20 minutes. 2) After the above process, 100 μL of the supernatant was taken to analyze the concentration of the test compound by LC/MS/MS.
2.7 Liquid Chromatography Analysis • Liquid chromatography condition: Shimadzu LC-20AD pump • Mass spectrometry condition: AB Sciex API 4000 mass spectrometer • Chromatographic column: phenomenex Gemiu 5 um C18 50×4.6 mm • Mobile phase: Eluent A was 0.1% formic acid in water, and Eluent B was acetonitrile • Flow rate: 0.8 mL/min • Elution time: 0-4.0 minutes the eluent is as follows:
The main parameters of pharmacokinetics were calculated by WinNonlin 8.2.

[4] = tested on: P2X3/P2X2/3; conditions: background; cited from earlier work
[5] = clinical stage; cited from earlier work

| Structure (SMILES) | IC50 [1] | IC50 [2] | further results |
| --- | --- | --- | --- |
| CC(C)(C)c1cc2n(CC(=O)Nc3ccc(F)cn3)c(=O)c3cccnc3n2n1 [Example 1, 2-(2-(Tert-butyl)-5-oxopyrazolo[1,5-a]pyrido[3,2-e]pyrimidin-4(5H)-yl)-N-(5-fluoropyridin-2-yl)acetamide] | 16.2 nM | 64400 nM | – |
| Cc1cc(-c2cc3n(CC(=O)Nc4ccc(F)cn4)c(=O)c4cccnc4n3n2)c(C)cn1 [Example 21] | 305 nM | – | – |
| Cc1cc(-c2cc3n(CC(=O)Nc4ccc(F)cn4)c(=O)c4ccc(C(F)(F)F)nc4n3n2)c(C)cn1 [Example 40] | 292 nM | 16700 nM | – |
| Cc1cnccc1-c1cc2n(CC(=O)Nc3ccc(F)cn3)c(=O)c3ccc(C(F)(F)F)nc3n2n1 [Example 63, N-(5-Fluoropyridin-2-yl)-2-(2-(3-methylpyridin-4-yl)-5-oxo-8-(trifluoromethyl)pyrazolo[1,5-a]pyrido[3,2-e]pyrimidin-4(5H)-yl)acetamide] | 238 nM | – | – |
| Cc1ncccc1-c1cc2n(CC(=O)Nc3ccc(F)cn3)c(=O)c3ccc(C(F)(F)F)nc3n2n1 [Example 64, N-(5-Fluoropyridin-2-yl)-2-(2-(2-methylpyridin-3-yl)-5-oxo-8-(trifluoromethyl)pyrazolo[1,5-a]pyrido[3,2-e]pyrimidin-4(5H)-yl)acetamide] | 149 nM | – | – |
| O=C(Cn1c(=O)c2ccc(C(F)(F)F)nc2n2nccc12)Nc1ccc(Cl)cn1 [Example 83, N-(5-Chloropyridin-2-yl)-2-(5-oxo-8-(trifluoromethyl)pyrazolo[1,5-a]pyrido[3,2-e]pyrimidin-4(5H)-yl)acetamide] | 137 nM | > 30000 nM | – |
| COc1cc(C(C)C)c(Oc2cnc(N)nc2N)cc1S(N)(=O)=O [MK-7264] | – | – | selectivity to P2X3/P2X2/3 [4]: low selectivity; side effects [5]: loss of taste |

Further lines, with some results ahead:

| IC50 [1] | IC50 [2] | Structure (SMILES) | further results |
| --- | --- | --- | --- |
| 88.2 nM | 14500 nM | CC(C)(C)c1cc2n(CC(=O)Nc3ccc(F)cn3)c(=O)c3ccc(C(F)(F)F)nc3n2n1 [Example 30, 2-(2-(Tert-butyl)-5-oxo-8-(trifluoromethyl)pyrazolo[1,5-a]pyrido[3,2-e]pyrimidin-4(5H)-yl)-N-(5-fluoropyridin-2-yl)acetamide] | AUC(0-t) ([3]; read-out: Area under curve AUC0-t): 10900 ng·h/mL; MRT inf ([3]; read-out: Average residence time MRT0-∞): 2.16 h; half-life ([3]; read-out: Half life t1/2 (converted)): 1.36 h; Tmax ([3]; read-out: Peak time tmax): 0.5 h; Cmax ([3]; read-out: Plasma concentration Cmax): 3550 ng/mL |
| 77.7 nM | > 30000 nM | O=C(Cn1c(=O)c2ccc(C(F)(F)F)nc2n2nc(C3CC3)cc12)Nc1ccc(F)cn1 [Example 35, 2-(2-Cyclopropyl-5-oxo-8-(trifluoromethyl)pyrazolo[1,5-a]pyrido[3,2-e]pyrimidin-4(5H)-yl)-N-(5-fluoropyridin-2-yl)acetamide] | – |
| 185 nM | – | CC(C)c1cc2n(CC(=O)Nc3ccc(F)cn3)c(=O)c3ccc(C(F)(F)F)nc3n2n1 [Example 36, N-(5-Fluoropyridin-2-yl)-2-(2-isopropyl-5-oxo-8-(trifluoromethyl)pyrazolo[1,5-a]pyrido[3,2-e]pyrimidin-4(5H)-yl)acetamide] | – |
| 337 nM | – | O=C(Cn1c(=O)c2ccc(C(F)(F)F)nc2n2nc(C3CCCC3)cc12)Nc1ccc(F)cn1 [Example 37, 2-(2-Cyclopentyl-5-oxo-8-(trifluoromethyl)pyrazolo[1,5-a]pyrido[3,2-e]pyrimidin-4(5H)-yl)-N-(5-fluoropyridin-2-yl)acetamide] | – |
| 259 nM | 32200 nM | CC1(c2cc3n(CC(=O)Nc4ccc(F)cn4)c(=O)c4ccc(C(F)(F)F)nc4n3n2)CC1 [Example 59, N-(5-Fluoropyridin-2-yl)-2-(2-(1-methylcyclopropyl)-5-oxo-8-(trifluoromethyl)pyrazolo[1,5-a]pyrido[3,2-e]pyrimidin-4(5H)-yl)acetamide] | – |
| 385 nM | – | O=C(Cn1c(=O)c2ccc(C(F)(F)F)nc2n2nc(C3CCCCC3)cc12)Nc1ccc(F)cn1 [Example 62, 2-(2-Cyclohexyl-5-oxo-8-(trifluoromethyl)pyrazolo[1,5-a]pyrido[3,2-e]pyrimidin-4(5H)-yl)-N-(5-fluoropyridin-2-yl)acetamide] | – |
| 130 nM | – | O=C(Cn1c(=O)c2ccc(C(F)(F)F)nc2n2nc(C(F)(F)F)cc12)Nc1ccc(F)cn1 [Example 66, N-(5-Fluoropyridin-2-yl)-2-(5-oxo-2,8-bis(trifluoromethyl)pyrazolo[1,5-a]pyrido[3,2-e]pyrimidin-4(5H)-yl)acetamide] | – |
| 203 nM | – | O=C(Cn1c(=O)c2ccc(C(F)(F)F)nc2n2nc(C(=O)N3CCC3)cc12)Nc1ccc(F)cn1 [Example 74, 2-(2-(Azetidine-1-carbonyl)-5-oxo-8-(trifluoromethyl)pyrazolo[1,5-a]pyrido[3,2-e]pyrimidin-4(5H)-yl)-N-(5-fluoropyridin-2-yl)acetamide] | – |
| 34.7 nM | – | O=C(Cn1c(=O)c2ccc(C(F)(F)F)nc2n2nc(Cl)cc12)Nc1ccc(F)cn1 [Example 79, 2-(2-Chloro-5-oxo-8-(trifluoromethyl)pyrazolo[1,5-a]pyrido[3,2-e]pyrimidin-4(5H)-yl)-N-(5-fluoropyridin-2-yl)acetamide] | – |
